Reference: ChEMBL document CHEMBL1140242, “Metabolism investigation leading to novel drug design: orally active prostacyclin mimetics. Part 4” (Bioorg Med Chem Lett, 2005)

What was measured:
[1] = species: Homo sapiens; test: Inhibition of ADP-induced aggregation of human platelets; assay type: functional, organism-based
[2] = Elimination half-life after peroral administration at a dose of 0.32 (mg/kg) in rat; assay type: ADME, organism-based; conditions: in vivo, po
[3] = Inhibition of ADP-induced aggregation of monkey platelets; assay type: functional; conditions: Cercopithecidae
[4] = system: Rattus norvegicus; test: Effective dose for in vivo activity in D-GalN/LPS-induced rat hepatic injury model; assay type: functional
[5] = Bioavailability of the drug after […] administration at a dose of 0.32 (mg/kg) in rat; assay type: ADME, organism-based; conditions: in vivo, iv, read-out: Ba
[6] = Maximum (Peak) plasma drug concentration after single-dose administration at a dose of 0.32 (mg/kg) in rat; assay type: ADME, organism-based; set-up: dose 0.32 mg/kg
[7] = target: T1, Thromboxane A2 receptor (Homo sapiens, UniProt P21731); test: Inhibition of [3H]SQ-29,548 binding to human Prostanoid TP receptor
T1 sequence (P21731 whole entry): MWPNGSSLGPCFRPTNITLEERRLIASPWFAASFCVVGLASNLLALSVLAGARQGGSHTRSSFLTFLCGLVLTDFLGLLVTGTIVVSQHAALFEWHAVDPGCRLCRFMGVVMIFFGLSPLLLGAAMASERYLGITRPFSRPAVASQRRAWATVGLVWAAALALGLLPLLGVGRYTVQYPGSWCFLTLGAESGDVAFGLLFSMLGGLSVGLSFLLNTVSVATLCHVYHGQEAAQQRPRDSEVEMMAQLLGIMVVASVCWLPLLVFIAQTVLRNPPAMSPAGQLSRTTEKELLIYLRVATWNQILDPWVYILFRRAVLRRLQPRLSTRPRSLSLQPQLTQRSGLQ

[8] = target: Prostacyclin receptor (Homo sapiens, UniProt P43119); test: Inhibition of [3H]-Iloprost binding to human Prostanoid IP receptor
[9] = target: Prostaglandin E2 receptor EP2 subtype (Homo sapiens, UniProt P43116); test: Inhibition of [3H]PGE-2 binding to Prostanoid EP2 receptor
[10] = species: Rattus norvegicus; test: Inhibition of ADP-induced aggregation of rat platelets; assay type: functional, organism-based
[11] = target: Prostaglandin E2 receptor EP4 subtype (Homo sapiens, UniProt P35408); test: Inhibition of [3H]PGE-2 binding to Prostanoid EP4 receptor
[12] = Bioavailability of the drug after […] administration at a dose of 1 (mg/kg) in rat; assay type: ADME, organism-based; conditions: in vivo, iv, read-out: Ba
[13] = Total body clearance of drug from the plasma after i.v. administration at a dose of 1 (mg/kg) in rat; assay type: ADME, organism-based; conditions: iv, read-out: CLtot
[14] = target: T2, Prostaglandin E2 receptor EP1 subtype (Homo sapiens, UniProt P34995); test: Inhibition of [3H]PGE-2 binding to Prostanoid EP1 receptor
T2 sequence (P34995 whole entry): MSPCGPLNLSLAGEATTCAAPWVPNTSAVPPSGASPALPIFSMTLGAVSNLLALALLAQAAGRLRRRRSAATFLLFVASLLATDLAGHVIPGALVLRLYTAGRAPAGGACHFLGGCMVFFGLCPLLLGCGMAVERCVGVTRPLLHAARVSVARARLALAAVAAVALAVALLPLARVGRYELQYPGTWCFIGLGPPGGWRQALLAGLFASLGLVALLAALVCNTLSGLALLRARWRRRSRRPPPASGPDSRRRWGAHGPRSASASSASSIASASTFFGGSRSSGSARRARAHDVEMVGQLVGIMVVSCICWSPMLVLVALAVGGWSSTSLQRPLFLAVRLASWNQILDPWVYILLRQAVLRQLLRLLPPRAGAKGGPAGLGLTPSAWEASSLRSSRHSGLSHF

[15] = Area Under Plasma concentration-time curve after peroral administration at a dose of 1 (mg/kg) in rat; assay type: ADME, organism-based; conditions: po
[16] = target: T3, Prostaglandin D2 receptor (Homo sapiens, UniProt Q13258); test: Inhibition of [3H]PGD-2 binding to human Prostanoid DP receptor
T3 sequence (Q13258 whole entry): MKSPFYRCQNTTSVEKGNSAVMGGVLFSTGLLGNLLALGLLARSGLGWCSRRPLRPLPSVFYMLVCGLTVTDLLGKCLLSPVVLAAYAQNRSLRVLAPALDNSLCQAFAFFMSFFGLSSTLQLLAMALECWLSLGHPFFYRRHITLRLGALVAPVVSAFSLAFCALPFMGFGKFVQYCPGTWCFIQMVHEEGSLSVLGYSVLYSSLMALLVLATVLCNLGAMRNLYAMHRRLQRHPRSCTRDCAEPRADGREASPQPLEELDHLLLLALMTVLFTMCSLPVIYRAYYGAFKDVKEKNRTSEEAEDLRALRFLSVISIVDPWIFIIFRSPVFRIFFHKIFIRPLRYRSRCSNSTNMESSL

[17] = target: T4, Prostaglandin E2 receptor EP3 subtype (Homo sapiens, UniProt P43115); test: Inhibition of [3H]-PGE-2 binding to Prostanoid EP3 receptor
T4 sequence (P43115 whole entry): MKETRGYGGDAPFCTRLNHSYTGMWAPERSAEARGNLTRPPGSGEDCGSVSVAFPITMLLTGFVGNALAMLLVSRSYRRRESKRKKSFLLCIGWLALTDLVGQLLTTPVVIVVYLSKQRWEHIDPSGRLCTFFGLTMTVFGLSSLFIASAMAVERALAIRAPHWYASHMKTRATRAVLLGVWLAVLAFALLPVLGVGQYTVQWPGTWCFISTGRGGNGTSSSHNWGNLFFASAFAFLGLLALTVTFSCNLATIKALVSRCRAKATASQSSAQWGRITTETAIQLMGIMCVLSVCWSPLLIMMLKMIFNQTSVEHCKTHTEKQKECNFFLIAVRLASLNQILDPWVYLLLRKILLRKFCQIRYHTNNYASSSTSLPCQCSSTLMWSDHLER

[18] = species: Canis familiaris; test: Inhibition of ADP-induced aggregation of dog platelets; assay type: functional; conditions: Canis lupus familiaris
[19] = target: Prostaglandin F2-alpha receptor (Homo sapiens, UniProt P43088); test: Inhibition of [3H]-PGF-2 binding to human Prostanoid FP receptor
[20] = Maximum (Peak) plasma drug concentration after single-dose administration at a dose of 1 (mg/kg) in rat; assay type: ADME, organism-based; set-up: dose 1 mg/kg
[21] = Area Under Plasma concentration-time curve after peroral administration at a dose of 0.32 (mg/kg) in rat; assay type: ADME, organism-based; conditions: po
[22] = Total body clearance of drug from the plasma after i.v. administration at a dose of 0.32 (mg/kg) in rat; assay type: ADME, organism-based; conditions: iv, read-out: CLtot

Chain of Prostacyclin receptor (P43119 whole entry): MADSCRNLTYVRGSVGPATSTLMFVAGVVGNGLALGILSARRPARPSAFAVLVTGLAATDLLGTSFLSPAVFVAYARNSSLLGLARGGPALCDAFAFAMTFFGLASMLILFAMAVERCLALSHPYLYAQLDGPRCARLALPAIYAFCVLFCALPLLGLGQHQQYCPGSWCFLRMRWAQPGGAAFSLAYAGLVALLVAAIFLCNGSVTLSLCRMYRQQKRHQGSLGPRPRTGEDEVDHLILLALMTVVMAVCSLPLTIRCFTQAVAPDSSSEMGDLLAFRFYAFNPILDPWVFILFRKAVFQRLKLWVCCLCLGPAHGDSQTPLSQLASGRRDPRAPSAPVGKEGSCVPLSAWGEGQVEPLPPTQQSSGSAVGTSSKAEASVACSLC
Chain of Prostaglandin F2-alpha receptor (P43088 whole entry): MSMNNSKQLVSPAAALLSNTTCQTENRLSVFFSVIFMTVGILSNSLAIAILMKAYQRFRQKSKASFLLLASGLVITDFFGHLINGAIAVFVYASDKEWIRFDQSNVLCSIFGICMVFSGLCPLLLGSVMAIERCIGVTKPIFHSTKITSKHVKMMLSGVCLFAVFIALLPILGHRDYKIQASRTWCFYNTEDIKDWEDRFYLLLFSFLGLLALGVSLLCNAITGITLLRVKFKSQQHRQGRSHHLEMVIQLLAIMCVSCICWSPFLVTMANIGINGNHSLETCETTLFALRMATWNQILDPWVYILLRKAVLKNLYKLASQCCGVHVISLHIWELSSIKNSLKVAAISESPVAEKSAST
Chain of Prostaglandin E2 receptor EP2 subtype (P43116 whole entry): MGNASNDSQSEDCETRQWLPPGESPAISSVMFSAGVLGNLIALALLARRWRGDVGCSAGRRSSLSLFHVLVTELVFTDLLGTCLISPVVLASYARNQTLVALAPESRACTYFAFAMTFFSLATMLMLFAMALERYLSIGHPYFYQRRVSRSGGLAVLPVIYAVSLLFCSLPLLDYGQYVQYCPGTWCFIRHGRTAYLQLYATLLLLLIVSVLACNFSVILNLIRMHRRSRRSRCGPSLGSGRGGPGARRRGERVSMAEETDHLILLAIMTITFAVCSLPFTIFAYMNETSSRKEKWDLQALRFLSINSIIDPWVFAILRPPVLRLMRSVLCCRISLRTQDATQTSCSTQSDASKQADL
Chain of Prostaglandin E2 receptor EP4 subtype (P35408 whole entry): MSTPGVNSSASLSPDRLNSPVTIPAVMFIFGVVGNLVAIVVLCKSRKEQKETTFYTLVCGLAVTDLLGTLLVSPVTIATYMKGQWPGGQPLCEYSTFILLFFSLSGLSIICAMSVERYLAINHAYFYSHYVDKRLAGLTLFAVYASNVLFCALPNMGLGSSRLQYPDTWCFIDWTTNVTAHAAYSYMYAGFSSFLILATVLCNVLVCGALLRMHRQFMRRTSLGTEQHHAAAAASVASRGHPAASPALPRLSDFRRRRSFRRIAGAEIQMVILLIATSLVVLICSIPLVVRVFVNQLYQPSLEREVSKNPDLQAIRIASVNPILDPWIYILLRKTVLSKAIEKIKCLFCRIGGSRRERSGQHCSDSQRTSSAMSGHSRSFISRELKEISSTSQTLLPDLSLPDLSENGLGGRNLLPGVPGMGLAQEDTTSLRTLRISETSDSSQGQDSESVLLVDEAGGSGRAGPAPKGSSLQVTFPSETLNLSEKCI

## O=C(O)COc1cccc(C[C@@H]2CCC=CC2(O)c2nc(-c3ccccc3)c(-c3ccccc3)o2)c1 (stereo not given in full)
[1]
  IC50: 98 nM

## O=C([O-])COc1cccc(C[C@@H]2CCCC=C2c2nc(-c3ccccc3)c(-c3ccccc3)o2)c1.[Na+]
[2]
  half-life: 6.6 h
[3]
  IC50: 188 nM
[4]
  ED50: 0.032 mg/kg
[5]
  bioavailability: 50%
[6]
  Cmax: 16.4 ng/mL

## O=C([O-])COc1cccc(C[C@@H]2CCC[C@@H]3O[C@]23c2nc(-c3ccccc3)c(-c3ccccc3)o2)c1.[Na+]
[7]
  Ki: 930 nM
[8]
  Ki: 6.1 nM
[9]
  Ki: 1400 nM
[10]
  IC50: 300 nM
[11]
  Ki: 7200 nM
[12]
  bioavailability: 20%
[13]
  clearance: 18.6 mL/min/kg
[2]
  half-life: 26.9 h
[14]
  Ki: > 10000 nM
[15]
  AUC: 168 ng·h/mL
[1]
  IC50: 5.8 nM
[16]
  Ki: 2900 nM
[17]
  Ki: 3200 nM
[18]
  IC50: 1470 nM
[3]
  IC50: 12 nM
[19]
  Ki: > 10000 nM
[20]
  Cmax: 67.9 ng/mL

## O=C([O-])COc1cccc(C[C@@H]2CCC=C2c2nc(-c3ccccc3)c(-c3ccccc3)o2)c1.[Na+]
[8]
  Ki: 41 nM
[21]
  AUC: 42.5 ng·h/mL
[10]
  IC50: 2800 nM
[2]
  half-life: 17 h
[1]
  IC50: 56 nM
[22]
  clearance: 9.19 mL/min/kg
[4]
  ED50: 1 mg/kg
[5]
  bioavailability: 78%
[6]
  Cmax: 45.2 ng/mL

## O=C(O)COc1cccc(C[C@@H]2CCCC3OC32c2nc(-c3ccccc3)c(-c3ccccc3)o2)c1 (stereo not given in full)
[1]
  IC50: 14 nM

## O=C(O)COc1cccc(C[C@@H]2CCC[C@H]3O[C@@]23c2nc(-c3ccccc3)c(-c3ccccc3)o2)c1
[1]
  IC50: 12 nM

## O=C(O)COc1cccc(C[C@@H]2CCCC(O)=C2c2nc(-c3ccccc3)c(-c3ccccc3)o2)c1
[1]
  IC50: 116 nM
